Results on 9 molecules are retold here after ChEMBL document CHEMBL5465560, “Selectivity Literature for EUbOPEN Chemogenomic Library” (2024).

Experiment [1] deals with Macrophage colony-stimulating factor 1 receptor (Homo sapiens) (UniProt P07333). Put plainly: Selectivity interaction (Upstate Kinase Profiler service (Millipore)) EUB0000056c CSF1R. The conditions noted are these: at 1 µM.
Experiment [2] concerns the target T1, Cytoplasmic tyrosine-protein kinase BMX (Homo sapiens) (UniProt P51813).
T1 sequence (whole entry): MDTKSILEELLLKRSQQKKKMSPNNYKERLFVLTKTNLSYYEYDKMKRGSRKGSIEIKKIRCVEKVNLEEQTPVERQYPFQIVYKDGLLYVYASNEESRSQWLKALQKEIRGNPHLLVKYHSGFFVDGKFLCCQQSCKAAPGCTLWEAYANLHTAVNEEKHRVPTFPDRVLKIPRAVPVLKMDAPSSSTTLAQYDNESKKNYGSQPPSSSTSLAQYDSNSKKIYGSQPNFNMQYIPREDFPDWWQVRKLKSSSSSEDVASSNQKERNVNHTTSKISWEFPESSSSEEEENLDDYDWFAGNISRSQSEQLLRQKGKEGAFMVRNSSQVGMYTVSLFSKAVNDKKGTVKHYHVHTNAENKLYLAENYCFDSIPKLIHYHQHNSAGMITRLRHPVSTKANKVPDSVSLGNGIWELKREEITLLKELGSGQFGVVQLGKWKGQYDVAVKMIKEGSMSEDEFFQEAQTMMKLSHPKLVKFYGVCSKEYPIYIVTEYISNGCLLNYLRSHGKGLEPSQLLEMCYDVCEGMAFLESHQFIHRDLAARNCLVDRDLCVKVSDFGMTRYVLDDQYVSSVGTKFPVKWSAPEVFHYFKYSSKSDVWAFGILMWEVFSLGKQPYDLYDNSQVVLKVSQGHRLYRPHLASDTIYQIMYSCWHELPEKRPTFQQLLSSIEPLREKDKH
The experiment can be described thus: Selectivity interaction (Kinase panel (DSF assay)) EUB0001558a BMX.

Experiment [3] concerns the target Serine/threonine-protein kinase SIK1 (Homo sapiens) (UniProt P57059). The experiment can be described thus: Selectivity interaction (Ambit KINOMEscan and KiNATiv profiling in Jurkat cells) EUB0000090b SIK1. Format: cell-based. The conditions noted are these: at 1 µM.
Experiment [4] concerns the target Serine/threonine-protein kinase MARK1 (Homo sapiens) (UniProt Q9P0L2). Put plainly: Selectivity interaction (KinomeScan (DiscoverX)) EUB0000092b MARK1. The conditions noted are these: at 10 µM.
For experiment [5], the target named is T2, Tyrosine-protein kinase ZAP-70 (Homo sapiens) (UniProt P43403).
T2 sequence (whole entry): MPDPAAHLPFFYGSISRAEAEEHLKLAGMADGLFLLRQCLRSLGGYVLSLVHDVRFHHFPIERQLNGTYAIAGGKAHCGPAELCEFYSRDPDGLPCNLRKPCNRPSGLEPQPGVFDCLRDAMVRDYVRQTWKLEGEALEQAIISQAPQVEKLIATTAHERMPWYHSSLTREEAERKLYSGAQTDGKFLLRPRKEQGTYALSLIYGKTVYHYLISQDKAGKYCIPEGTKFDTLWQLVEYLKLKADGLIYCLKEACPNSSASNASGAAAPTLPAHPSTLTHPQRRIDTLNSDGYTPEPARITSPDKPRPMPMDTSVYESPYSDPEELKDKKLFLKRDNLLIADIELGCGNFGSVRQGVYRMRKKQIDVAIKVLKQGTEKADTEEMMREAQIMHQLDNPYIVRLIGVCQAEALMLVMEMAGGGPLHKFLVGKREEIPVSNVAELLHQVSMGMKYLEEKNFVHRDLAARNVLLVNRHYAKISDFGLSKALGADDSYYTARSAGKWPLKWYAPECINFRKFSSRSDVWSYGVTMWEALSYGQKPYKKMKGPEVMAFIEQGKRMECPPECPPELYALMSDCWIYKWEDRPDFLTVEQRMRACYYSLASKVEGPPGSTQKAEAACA
The experiment can be described thus: Selectivity interaction (KinomeScan (DiscoverX)) EUB0000695a ZAP70. The conditions noted are these: at 100 nM.

The target of experiment [6] is T3, Serine/threonine-protein kinase haspin (Homo sapiens) (UniProt Q8TF76).
T3 sequence (whole entry): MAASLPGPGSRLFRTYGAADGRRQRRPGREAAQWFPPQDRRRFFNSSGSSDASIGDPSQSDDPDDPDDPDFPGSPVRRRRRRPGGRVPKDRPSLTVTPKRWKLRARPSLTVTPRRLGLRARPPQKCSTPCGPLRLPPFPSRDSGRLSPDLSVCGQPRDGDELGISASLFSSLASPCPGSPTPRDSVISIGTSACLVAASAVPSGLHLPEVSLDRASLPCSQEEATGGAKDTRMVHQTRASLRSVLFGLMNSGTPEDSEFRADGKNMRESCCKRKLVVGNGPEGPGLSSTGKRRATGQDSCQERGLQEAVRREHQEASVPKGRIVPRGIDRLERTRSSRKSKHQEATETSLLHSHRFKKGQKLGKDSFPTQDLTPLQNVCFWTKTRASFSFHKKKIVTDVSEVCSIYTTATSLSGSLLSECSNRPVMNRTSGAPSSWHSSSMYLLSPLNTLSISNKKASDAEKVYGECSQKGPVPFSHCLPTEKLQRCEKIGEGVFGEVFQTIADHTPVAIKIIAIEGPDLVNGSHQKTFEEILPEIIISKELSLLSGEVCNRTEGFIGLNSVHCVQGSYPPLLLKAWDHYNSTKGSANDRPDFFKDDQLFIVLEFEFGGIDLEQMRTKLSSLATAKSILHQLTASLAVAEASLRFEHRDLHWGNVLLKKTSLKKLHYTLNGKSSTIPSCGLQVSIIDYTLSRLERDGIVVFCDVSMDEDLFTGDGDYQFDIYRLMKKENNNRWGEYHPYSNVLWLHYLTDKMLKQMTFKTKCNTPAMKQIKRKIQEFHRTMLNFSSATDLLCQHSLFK
Put plainly: Selectivity interaction (KinomeScan (DiscoverX)) EUB0000666a GSG2. The conditions noted are these: at 10 µM.

For experiment [7], the target named is Tyrosine-protein kinase Fyn (Homo sapiens) (UniProt P06241). Put plainly: Selectivity interaction (Kinase panel (Z-LYTE Assay)) EUB0001632a FYN. The conditions noted are these: at 10 µM.
Experiment [8] addresses T4, Uncharacterized serine/threonine-protein kinase SBK3 (Homo sapiens) (UniProt P0C264).
T4 sequence (whole entry): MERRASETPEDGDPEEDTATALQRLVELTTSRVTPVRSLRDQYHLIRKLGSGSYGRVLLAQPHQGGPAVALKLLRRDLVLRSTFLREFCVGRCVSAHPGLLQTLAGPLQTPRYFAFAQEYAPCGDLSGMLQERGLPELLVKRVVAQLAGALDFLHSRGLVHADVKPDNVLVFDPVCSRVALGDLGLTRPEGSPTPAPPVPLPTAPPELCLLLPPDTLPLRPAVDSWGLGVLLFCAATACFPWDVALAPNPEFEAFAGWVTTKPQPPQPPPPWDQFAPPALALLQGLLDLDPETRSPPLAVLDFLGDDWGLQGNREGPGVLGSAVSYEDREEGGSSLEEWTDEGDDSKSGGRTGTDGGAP
The experiment can be described thus: Selectivity interaction (KinomeScan (DiscoverX)) EUB0000607a SBK3. The conditions noted are these: at 10 µM.

Experiment [9] has as its target Cyclin-dependent kinase 5 (Homo sapiens, UniProt Q00535). Put plainly: Selectivity interaction (Kinase panel (enzymatic assay)) EUB0000595a CDK5.

Chain of Tyrosine-protein kinase Fyn (Homo sapiens) (P06241 2-537 limits assumed): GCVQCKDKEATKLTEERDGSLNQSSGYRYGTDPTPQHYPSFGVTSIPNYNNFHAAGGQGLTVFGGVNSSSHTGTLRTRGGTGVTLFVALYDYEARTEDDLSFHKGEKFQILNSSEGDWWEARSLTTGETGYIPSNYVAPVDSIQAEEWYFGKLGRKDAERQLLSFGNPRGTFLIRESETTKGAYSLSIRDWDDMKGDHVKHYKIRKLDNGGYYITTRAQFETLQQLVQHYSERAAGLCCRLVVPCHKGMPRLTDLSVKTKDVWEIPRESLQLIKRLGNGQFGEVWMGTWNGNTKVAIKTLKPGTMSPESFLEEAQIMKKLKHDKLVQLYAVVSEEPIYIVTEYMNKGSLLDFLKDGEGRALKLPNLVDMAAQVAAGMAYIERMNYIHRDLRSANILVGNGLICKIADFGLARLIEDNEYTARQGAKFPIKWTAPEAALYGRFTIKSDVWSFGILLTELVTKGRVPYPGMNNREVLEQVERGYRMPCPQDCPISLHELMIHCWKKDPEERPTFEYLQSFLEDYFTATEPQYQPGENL
Chain of Serine/threonine-protein kinase MARK1 (Homo sapiens) (Q9P0L2 whole entry, looked up): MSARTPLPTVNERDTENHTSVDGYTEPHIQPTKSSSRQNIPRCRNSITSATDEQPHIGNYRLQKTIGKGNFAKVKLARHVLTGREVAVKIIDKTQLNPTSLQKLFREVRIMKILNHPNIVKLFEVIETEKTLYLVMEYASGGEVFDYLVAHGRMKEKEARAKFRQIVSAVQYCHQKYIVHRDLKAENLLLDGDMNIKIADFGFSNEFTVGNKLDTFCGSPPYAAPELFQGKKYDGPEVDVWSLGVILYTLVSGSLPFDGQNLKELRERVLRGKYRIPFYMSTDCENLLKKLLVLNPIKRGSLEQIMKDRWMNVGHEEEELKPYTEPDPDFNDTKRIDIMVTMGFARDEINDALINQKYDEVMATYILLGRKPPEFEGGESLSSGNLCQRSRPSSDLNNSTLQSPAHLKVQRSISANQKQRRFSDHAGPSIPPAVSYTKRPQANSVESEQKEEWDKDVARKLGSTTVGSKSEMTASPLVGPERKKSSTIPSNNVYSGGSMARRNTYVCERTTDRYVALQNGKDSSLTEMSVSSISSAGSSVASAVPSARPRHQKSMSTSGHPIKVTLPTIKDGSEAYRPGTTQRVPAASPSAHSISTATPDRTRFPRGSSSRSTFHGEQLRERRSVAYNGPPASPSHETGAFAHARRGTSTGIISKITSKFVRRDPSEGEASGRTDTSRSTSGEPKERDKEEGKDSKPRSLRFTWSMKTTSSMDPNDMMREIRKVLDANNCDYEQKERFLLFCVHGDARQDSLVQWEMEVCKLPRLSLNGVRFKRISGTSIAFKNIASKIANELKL
Chain of Cyclin-dependent kinase 5 (Q00535 whole entry): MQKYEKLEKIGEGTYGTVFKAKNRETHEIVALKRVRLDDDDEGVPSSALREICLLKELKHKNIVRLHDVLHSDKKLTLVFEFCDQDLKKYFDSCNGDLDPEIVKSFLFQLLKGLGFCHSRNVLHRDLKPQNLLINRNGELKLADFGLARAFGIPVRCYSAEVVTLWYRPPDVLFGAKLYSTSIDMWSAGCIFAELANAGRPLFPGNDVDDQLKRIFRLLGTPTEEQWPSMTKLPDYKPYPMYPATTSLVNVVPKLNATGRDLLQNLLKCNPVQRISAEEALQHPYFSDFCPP
Chain of Serine/threonine-protein kinase SIK1 (Homo sapiens) (P57059 whole entry): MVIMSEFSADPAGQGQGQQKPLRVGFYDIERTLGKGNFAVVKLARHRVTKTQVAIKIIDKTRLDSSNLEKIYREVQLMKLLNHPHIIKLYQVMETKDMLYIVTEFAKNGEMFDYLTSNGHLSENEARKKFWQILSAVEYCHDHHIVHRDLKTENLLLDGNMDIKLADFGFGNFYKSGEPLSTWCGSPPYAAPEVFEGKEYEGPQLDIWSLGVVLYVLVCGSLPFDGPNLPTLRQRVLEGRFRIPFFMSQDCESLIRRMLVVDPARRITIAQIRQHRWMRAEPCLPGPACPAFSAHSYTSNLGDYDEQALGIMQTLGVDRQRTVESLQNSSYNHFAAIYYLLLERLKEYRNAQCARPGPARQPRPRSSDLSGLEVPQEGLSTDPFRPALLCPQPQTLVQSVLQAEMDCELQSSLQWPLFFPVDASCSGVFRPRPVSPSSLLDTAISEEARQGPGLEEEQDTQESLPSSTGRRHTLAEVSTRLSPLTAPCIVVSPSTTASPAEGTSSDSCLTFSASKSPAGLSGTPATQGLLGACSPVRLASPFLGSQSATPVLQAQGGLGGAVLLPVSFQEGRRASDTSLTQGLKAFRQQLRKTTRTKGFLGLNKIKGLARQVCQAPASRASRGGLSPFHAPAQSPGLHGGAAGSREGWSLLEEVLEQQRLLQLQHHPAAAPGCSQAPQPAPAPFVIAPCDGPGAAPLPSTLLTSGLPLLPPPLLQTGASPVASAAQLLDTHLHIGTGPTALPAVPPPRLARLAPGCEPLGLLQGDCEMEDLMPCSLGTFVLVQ
Chain of Macrophage colony-stimulating factor 1 receptor (Homo sapiens) (P07333 whole entry): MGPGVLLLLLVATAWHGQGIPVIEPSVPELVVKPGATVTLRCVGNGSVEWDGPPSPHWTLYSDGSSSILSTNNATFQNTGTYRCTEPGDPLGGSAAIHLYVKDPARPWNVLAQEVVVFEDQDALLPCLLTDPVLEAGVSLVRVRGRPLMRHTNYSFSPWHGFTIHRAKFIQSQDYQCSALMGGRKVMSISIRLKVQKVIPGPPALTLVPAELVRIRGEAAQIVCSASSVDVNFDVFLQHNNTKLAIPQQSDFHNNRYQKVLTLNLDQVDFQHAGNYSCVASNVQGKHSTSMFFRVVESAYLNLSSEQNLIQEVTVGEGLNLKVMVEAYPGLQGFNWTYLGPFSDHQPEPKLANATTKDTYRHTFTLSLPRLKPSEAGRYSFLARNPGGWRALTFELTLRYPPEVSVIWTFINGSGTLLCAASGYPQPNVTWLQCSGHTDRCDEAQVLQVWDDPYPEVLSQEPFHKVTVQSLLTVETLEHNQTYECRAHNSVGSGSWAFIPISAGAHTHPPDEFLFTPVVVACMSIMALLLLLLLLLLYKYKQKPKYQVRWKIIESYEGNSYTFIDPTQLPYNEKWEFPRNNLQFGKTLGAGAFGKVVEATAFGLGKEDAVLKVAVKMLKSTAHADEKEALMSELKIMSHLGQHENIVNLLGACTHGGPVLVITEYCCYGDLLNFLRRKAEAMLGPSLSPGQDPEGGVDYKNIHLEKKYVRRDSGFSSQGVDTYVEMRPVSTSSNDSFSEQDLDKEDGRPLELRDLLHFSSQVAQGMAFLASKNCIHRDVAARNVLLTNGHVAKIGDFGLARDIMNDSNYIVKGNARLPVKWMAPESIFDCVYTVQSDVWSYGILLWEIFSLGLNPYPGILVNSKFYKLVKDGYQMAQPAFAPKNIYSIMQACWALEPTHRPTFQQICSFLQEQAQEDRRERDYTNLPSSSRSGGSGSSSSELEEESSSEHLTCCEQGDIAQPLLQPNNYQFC

In the case of `Cc1ccc(-c2ccc3c(ccc4sc5c(c43)NC[C@@H](C)NC5=O)n2)cn1`, the % of inhibition in experiment [1] is 13%.
As for `CC(C)(O)[C@H](F)CN1Cc2cc(NC(=O)c3cnn4cccnc34)c(N3CCOCC3)cc2C1=O`, the dTM in experiment [2] was 0.2 K.
In experiment [3], `CN(C)C/C=C/C(=O)Nc1ccc(C(=O)N2CCCC(Nc3ncc(Cl)c(-c4c[nH]c5ccccc45)n3)C2)cc1` (centres undefined) registered a % of control of 98%.
In turn, `CCC(=O)N1CCN(c2ccc(-n3c(=O)ccc4cnc5ccc(-c6cnc7ccccc7c6)cc5c43)cc2C(F)(F)F)CC1` had a % of control in experiment [4] of 100%.
In the case of `Cc1cc(F)c(C(=O)Nc2cccc(-c3nncn3C(C)C)n2)cc1-n1cnc(C2CC2)c1`, the % of control in experiment [5] came to 100%.
In experiment [6], `O=C(NOC[C@H](O)CO)c1ccc(F)c(F)c1Nc1ccc(I)cc1F` had a % of control of 100%.
`Cn1cc(-n2cnc3c(NCc4nc5cc(Cl)c(Cl)cc5[nH]4)nc(N4CCOCC4)nc32)cn1` showed a % of control in [7] of 1.52%.
In turn, `CNC(=O)Nc1ccc(-c2nc(N3CC4CCC(C3)O4)c3cnn(C4CCC5(CC4)OCCO5)c3n2)cc1` displayed a % of control in experiment [8] of 96%.
As for `COCC(=O)NC/C=C/c1ccc2ncnc(Nc3ccc(Oc4ccc(C)nc4)c(C)c3)c2c1` [CP-724714], in experiment [9], the IC50 is above 10 µM.
